Reference: US20020025944A1, “Use of clioquinol for the therapy of Alzheimer's disease” (priority 2000, published 2002)
Read-outs that look alike come from different tables or passages of the source.

Key:
[1] = rats and mice, within one hour of ingestion; cited from earlier work
[2] = chelation of zinc; cited from earlier work
Aβ 1-40 aggregates = Aβ 1-40 aggregates (Homo sapiens, UniProt P05067); test: resolubilization of metal- or pH-induced Aβ aggregates on 0.2μ nylon membrane; type: biochemical; details: 2 μM chelator in TBS, relative to TBS alone
Protocol: Aggregates were transferred to a 0.2μ nylon membrane by filtration. The aggregates were then washed (200 μl/well) with TBS alone, TBS containing 2 μM EDTA, or TBS containing 2 μM clioquinol. The membrane was fixed, probed with the anti-Aβ monoclonal antibody 6E10, and developed for exposure to ECL-film. […] Values are expressed as a percentage of Aβ signal after washing with TBS alone.
First, the efficacy of clioquinol's ability to resolubilize Aβ aggregates, formed in vitro by the action of Cu(II) or Zn(II) upon Aβ 1-40, was examined. […] Aβ (10 ng/well in buffered saline) aggregation was induced by addition of ZnCl2 (5 μM) or acidic conditions (pH 5.5). Aggregates were transferred to a 0.2μ nylon membrane by filtration. The aggregates were then washed (200 μl/well) with TBS alone, TBS containing 2 μM EDTA or TBS with 2 μM clioquinol. The membrane was then fixed, probed with anti-Aβ monoclonal antibody 6E10 and developed for exposure to ECL-film.
Values are expressed as a % of Aβ signal remaining on the filter after washing with TBS alone.

[3] = rats, oral dose of 200 mg/kg; cited from earlier work
[4] = cited from earlier work; for blood brain barrier passage: in vivo
[5] = monkeys, oral dose of 500 mg/kg; cited from earlier work
[6] = dissolving clioquinol: n-decane / PBS partitioning; type: physicochemical
Protocol: In order to obtain a solution of clioquinol in PBS, the following protocol was followed: 5.3 grams of clioquinol was suspended with agitation in 200 milliliter of n-decane. […] Next, the phases were allowed to separate. The lower phase ([…]) was collected and filtered to remove the residue which had formed at the phase interface upon extraction with the organic solvent. […] This number was arrived at based on two assumptions: (1) 2% of the clioquinol was dissolved in the n-decane; and (2) the partitioning coefficient is 1/1750 with PBS at 1:1 mixture of n-decane to […].

[7] = with PBS at 1:1 mixture of n-decane; cited from earlier work
[8] = sustained treatment; cited from earlier work
[9] = cited from earlier work
[10] = test system: Aβ deposits from AD-affected brain; test: extraction of Aβ from post-mortem AD-affected brain tissue, western blot; type: biochemical, human
Text: To test this hypothesis, the brain tissue preparation of Kuo and colleagues was replicated, but phosphate-buffered saline pH 7.4 (PBS) was substituted as the extraction buffer, achieving similar results. Highly sensitive and specific anti-Aβ monoclonal antibodies (Ida et al., (1996)) were used to assay Aβ extraction by western blot. Next, the extraction of the same material with PBS was repeated in the presence of clioquinol and determined that the presence of clioquinol increased the amount of Aβ in the soluble extract several-fold (FIGS. 1, 2, 3A, and 3B).
Next, the ability of clioquinol to extract Aβ deposits from human brain was determined. […] Fragments of prefrontal cortex from individual post-mortem samples with the histopathological diagnosis of AD were homogenized in PBS, ph 7.4, and then pelleted after centrifugation.
The pellets were then washed with agitation twice for 30 minutes, 4° C., with PBS or PBS containing clioquinol (100% =0.8 μM clioquinol). The suspension was then pelleted (10,000 g for 30 minutes) and the supernatant removed (S1) for western blot analysis using Aβ-specific antibodies.
FIGS. 3A and 3B show the western blot and accompanying densitometric analysis of resolubilization of Aβ from AD-affected brain. […] Synthetic peptide standards that were used to calibrate densitometric quantification are shown in the two right-most lanes. […]

Aβ1-40 = Aβ1-40 (Homo sapiens, UniProt P05067); test: Zn(II)-induced Aβ1-40 aggregation, supernatant protein by BCA assay; type: biochemical; details: 20 mM HEPES, pH 7.4, 30 minutes at 37° C.
Protocol: Aβ1-40 was incubated with no metal, Zn (II), Zn (II) +clioquinol, DMSO or clioquinol (120 μM) in 20 mM HEPES, […], pH 7.4. Samples were incubated for 30 minutes at 37° C. and then centrifuged at 10,000 g for 20 minutes and the protein content of the supernatant determined using the BCA assay. Clioquinol was dissolved in DMSO prior to adding 20 μM to the samples. […] DMSO had no effect on Aβ aggregation. Results are mean ±SD, n=3.

[11] = cited from earlier work; remark: listed apart in the source
[12] = dogs, oral dose of 200 mg/kg; cited from earlier work

Chain of Aβ 1-40 aggregates (P05067 672-711): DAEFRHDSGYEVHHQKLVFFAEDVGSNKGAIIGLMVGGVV
Chain of Aβ1-40 (P05067 672-711 limits assumed): as the sequence (P05067 672-711) above

Compound: Oc1c(I)cc(Cl)c2cccnc12 [clioquinol, 5-chloro-7-iodo-8-hydroxyquinoline]
- blood levels [1]: 1 to 10 µM
- K(Zn) [2]: 12.5
- resolubilized Cu(II)-induced Aβ precipitate (Aβ 1-40 aggregates): 85%
- resolubilized Zn(II)-induced Aβ precipitate (Aβ 1-40 aggregates): 50%
- resolubilized pH 5.5-induced Aβ precipitate (Aβ 1-40 aggregates): 10%
- plasma levels [3]: 5 µM
- removal of a bolus dose from the brain ([4]; bolus dose): almost completely removed from the brain within three hours
- blood brain barrier passage [4]: freely permeable into the brain
- blood brain barrier passage ([4]; listed as Clioquinol): crosses the blood brain barrier
- plasma levels [5]: 20 to 70 µM
- fraction of clioquinol dissolved in n-decane ([6]; 5.3 grams suspended in 200 milliliter n-decane): 2%
- concentration of clioquinol in the PBS ([6]; PBS pH 7.4 after 1:1 extraction of n-decane supernatant): 800 nanamolar
- partitioning coefficient [7]: 1/1750
- dose causing subacute myelo-optic neuritis [8]: 10 mg/kg/day
- excretion half life ([9]; in vivo): 1 to 3 h
- time to reach peak plasma levels ([9]; oral ingestion): ≤ 30 min
- increase in solubilization of Aβ relative to PBS alone ([10]; 1.12 μM clioquinol, sequential extraction): 2.5 fold
- proportion of Aβ re-dissolved from post-mortem AD affected brain tissue ([10]; compared to buffer in the absence of chelators): up to 70%
- effect on Zn-induced Aβ1-40 aggregation (Aβ1-40): attenuated Zn-induced Aβ1-40 aggregation
- general toxicity profile ([11]; in vivo): low general toxicity profile
- safety in mammalian species ([11]; many mammalian species, including rat and mouse): appears to be safe
- plasma levels [12]: 10 to 30 µM
